ChEMBL document CHEMBL4007386, “Design, synthesis of allosteric peptide activator for human SIRT1 and its biological evaluation in cellular model of Alzheimer's disease” (Eur J Med Chem, 2017)
Blank lines part the entries; values can stand above or below the compound they belong to. Active and inactive are the calls of the source. No cut-off for these calls is given here. Where a SMILES comes first, the peptide text is derived from it.

Key:
[1] = target: T1, NAD-dependent protein deacetylase sirtuin-1 (Homo sapiens) (UniProt Q96EB6); test: Activation of SIRT1 (unknown origin) expressed in bacterial expression system assessed as increase in enzyme activity at 100 uM using Fluorophore labeled-Arg-His-Lys-Lys (Ac) as substrate incubated for 30 mins in presence of NAD+ by fluorimetric method relative to control
T1 sequence (whole entry): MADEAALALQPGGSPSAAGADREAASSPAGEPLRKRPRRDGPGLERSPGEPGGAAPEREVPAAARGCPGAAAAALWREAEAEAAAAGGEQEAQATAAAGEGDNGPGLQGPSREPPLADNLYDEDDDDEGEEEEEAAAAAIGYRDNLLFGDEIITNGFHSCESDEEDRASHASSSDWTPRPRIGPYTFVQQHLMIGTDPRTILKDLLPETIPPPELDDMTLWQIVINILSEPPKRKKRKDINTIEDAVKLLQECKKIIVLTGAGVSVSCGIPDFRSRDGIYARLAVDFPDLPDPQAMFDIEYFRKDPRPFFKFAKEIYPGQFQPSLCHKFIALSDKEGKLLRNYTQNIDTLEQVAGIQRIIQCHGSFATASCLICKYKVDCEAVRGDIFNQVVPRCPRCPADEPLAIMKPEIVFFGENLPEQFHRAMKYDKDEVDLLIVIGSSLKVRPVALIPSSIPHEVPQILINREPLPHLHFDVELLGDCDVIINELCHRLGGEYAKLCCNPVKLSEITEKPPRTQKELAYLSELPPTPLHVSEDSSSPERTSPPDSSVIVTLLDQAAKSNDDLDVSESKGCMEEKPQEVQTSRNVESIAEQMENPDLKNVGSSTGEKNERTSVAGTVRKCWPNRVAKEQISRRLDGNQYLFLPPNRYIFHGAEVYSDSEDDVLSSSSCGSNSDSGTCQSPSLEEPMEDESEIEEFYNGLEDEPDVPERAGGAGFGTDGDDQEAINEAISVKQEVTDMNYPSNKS

[2] = target: T1, NAD-dependent protein deacetylase sirtuin-1 (Homo sapiens); test: Activation of SIRT1 in Alzheimer's disease patient serum assessed as increase in deacetylation of SIRT1 substrate peptide at 5 mM preincubated for 1 hr followed by substrate addition measured after 1 hr by fluorescence spectroscopic method
[3] = target: T1, NAD-dependent protein deacetylase sirtuin-1 (Homo sapiens); test: Activation of SIRT1 (unknown origin) expressed in bacterial expression system assessed as increase in enzyme activity at 105 uM using Fluorophore labeled-Arg-His-Lys-Lys (Ac) as substrate incubated for 30 mins in presence of NAD+ by fluorimetric method relative to control
[4] = target: T1, NAD-dependent protein deacetylase sirtuin-1 (Homo sapiens); test: Activation of SIRT1 (unknown origin) expressed in bacterial expression system assessed as increase in enzyme activity at >145 uM using Fluorophore labeled-Arg-His-Lys-Lys (Ac) as substrate incubated for 30 mins in presence of NAD+ by fluorimetric method
[5] = target: T1, NAD-dependent protein deacetylase sirtuin-1 (Homo sapiens); test: Activation of SIRT1 (unknown origin) expressed in bacterial expression system assessed as increase in enzyme activity using Fluorophore labeled-Arg-His-Lys-Lys (Ac) as substrate incubated for 30 mins in presence of NAD+ by fluorimetric method
[6] = target: T1, NAD-dependent protein deacetylase sirtuin-1 (Homo sapiens); test: Activation of SIRT1 in Alzheimer's disease patient serum assessed as increase in deacetylation of SIRT1 substrate peptide at 1.5 to 3 mM preincubated for 1 hr followed by substrate addition measured after 1 hr by fluorescence spectroscopic method relative to control
[7] = target: T2, NAD-dependent protein deacetylase sirtuin-2 (Homo sapiens) (UniProt Q8IXJ6); test: Activity at SIRT2 in Alzheimer's disease patient serum assessed as effect on deacetylation of SIRT2 substrate peptide at 1.5 to 3 mM preincubated for 1 hr followed by substrate addition measured after 1 hr by fluorescence spectroscopic method
T2 sequence (whole entry): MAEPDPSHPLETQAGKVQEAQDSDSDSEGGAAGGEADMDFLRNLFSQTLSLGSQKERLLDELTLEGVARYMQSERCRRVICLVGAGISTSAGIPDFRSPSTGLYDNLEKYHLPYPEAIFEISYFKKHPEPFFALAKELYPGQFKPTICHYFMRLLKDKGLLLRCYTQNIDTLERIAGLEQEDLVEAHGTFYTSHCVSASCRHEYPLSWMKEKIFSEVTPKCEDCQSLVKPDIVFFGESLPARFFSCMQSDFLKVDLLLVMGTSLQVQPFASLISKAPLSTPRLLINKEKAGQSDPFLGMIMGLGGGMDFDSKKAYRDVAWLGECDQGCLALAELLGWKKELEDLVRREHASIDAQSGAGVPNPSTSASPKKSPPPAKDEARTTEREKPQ

[8] = target: T1, NAD-dependent protein deacetylase sirtuin-1 (Homo sapiens); test: Allosteric activation of SIRT1 in human IMR32 cells assessed as decrease in acetylation level of K382 residue of p53 after 48 hrs by Western blot method; format: cell-based
[9] = target: T1, NAD-dependent protein deacetylase sirtuin-1 (Homo sapiens); test: Allosteric activation of SIRT1 in human IMR32 cells assessed as decrease in acetylation level of K382 residue of p53 at 160 uM after 48 hrs in presence of SIRT1 inhibitor nicotinamide by Western blot method; format: cell-based
[10] = target: T1, NAD-dependent protein deacetylase sirtuin-1 (Homo sapiens); test: Activation of SIRT1 in human IMR32 cells assessed as protection against amyloid beta (25 to 35)-induced toxicity by measuring cell viability at 10 uM after 48 hrs by MTT assay (reference value: 56.3 +/- 1.2%); format: cell-based
[11] = target: T1, NAD-dependent protein deacetylase sirtuin-1 (Homo sapiens); test: Activation of SIRT1 in human IMR32 cells assessed as protection against amyloid beta (25 to 35)-induced toxicity by measuring cell viability at 20 uM after 48 hrs by MTT assay (reference value: 56.3 +/- 1.2%); format: cell-based
[12] = target: T1, NAD-dependent protein deacetylase sirtuin-1 (Homo sapiens); test: Activation of SIRT1 in human IMR32 cells assessed as protection against amyloid beta (25 to 35)-induced toxicity by measuring cell viability at 40 uM after 48 hrs by MTT assay (reference value: 56.3 +/- 1.2%); format: cell-based
[13] = target: T1, NAD-dependent protein deacetylase sirtuin-1 (Homo sapiens); test: Activation of SIRT1 in human IMR32 cells assessed as protection against amyloid beta (25 to 35)-induced toxicity by measuring cell viability at 80 uM after 48 hrs by MTT assay (reference value: 56.3 +/- 1.2%); format: cell-based

Activity [1]: 15%
Structure (SMILES): N[C@@H](Cc1cnc[nH]1)C(=O)N[C@@H](CCC(=O)O)C(=O)N[C@@H](Cc1ccc(O)cc1)C(=O)O (H-His-Glu-Tyr-OH)

Activity [1]: 5%
Structure (SMILES): CC(C)[C@H](NC(=O)[C@@H](N)Cc1cnc[nH]1)C(=O)N[C@@H](CCCNC(=N)N)C(=O)O (H-His-Val-Arg-OH)

Activity [1]: 6%
Structure (SMILES): CC(C)C[C@H](NC(=O)[C@@H](N)CC(N)=O)C(=O)N[C@@H](CCCNC(=N)N)C(=O)O (H-Asn-Leu-Arg-OH)

Activity [2]: inactive
Structure (SMILES): NC(=O)c1cccnc1

Activity [1]: 12%
Structure (SMILES): N=C(N)NCCC[C@H](NC(=O)[C@H](Cc1ccc(O)cc1)NC(=O)[C@@H](N)CCC(N)=O)C(=O)O (H-Gln-Tyr-Arg-OH)

Activity [1]: 24%
Structure (SMILES): N=C(N)NCCC[C@H](NC(=O)[C@H](Cc1c[nH]c2ccccc12)NC(=O)[C@@H](N)CC(N)=O)C(=O)O (H-Asn-Trp-Arg-OH)

fold change (FC) [3]: 2
Activity [1]: 97%
Activity [4]: Active
EC1.5 [5]: 55 µM
Activity [6]: 21.2%
Activity [7]: inactive
Activity [8]: Dose-dependent effect
Activity [9]: inactive
Structure (SMILES): N=C(N)NCCC[C@H](NC(=O)[C@H](Cc1c[nH]c2ccccc12)NC(=O)[C@@H](N)CS)C(=O)O (H-Cys-Trp-Arg-OH)
Activity [10]: 57.1%
Activity [11]: 68%
Activity [12]: 79.8%
Activity [13]: 83.4%

Activity [1]: 19%
Structure (SMILES): N=C(N)NCCC[C@H](NC(=O)[C@H](Cc1ccc(O)cc1)NC(=O)[C@@H](N)Cc1cnc[nH]1)C(=O)O (H-His-Tyr-Arg-OH)

Activity [1]: 28%
Structure (SMILES): N=C(N)NCCC[C@H](NC(=O)[C@H](Cc1c[nH]c2ccccc12)NC(=O)[C@@H](N)Cc1ccccc1)C(=O)O (H-Phe-Trp-Arg-OH)

Activity [1]: 4%
Structure (SMILES): N=C(N)NCCC[C@H](NC(=O)[C@H](Cc1ccc(O)cc1)NC(=O)[C@@H](N)CC(N)=O)C(=O)O (H-Asn-Tyr-Arg-OH)

Activity [1]: -10%
Structure (SMILES): N=C(N)NCCC[C@H](NC(=O)[C@@H]1CCCN1C(=O)[C@@H](N)Cc1cnc[nH]1)C(=O)O (H-His-Pro-Arg-OH)
